Measurements from the NIST ThermoML archive (doi:10.1021/je7002786).
± gives the expanded uncertainty stated by the source.

What was measured:
[1] = molar heat capacity at constant pressure; settings: 101.33 kPa, Liquid
[2] = DTA

CCOS(=O)(=O)[O-].CCn1cc[n+](C)c1 [1-ethyl-3-methylimidazolium ethyl sulfate]
[1], Small sample (50 mg) DSC
Settings	molar heat capacity at constant pressure [J/K/mol]
283.1 K	387.04 ± 160
293.15 K	409.73 ± 160
303.15 K	432.41 ± 170
313.15 K	455.09 ± 180
323.15 K	477.78 ± 190
333.15 K	500.46 ± 200
343.15 K	523.15 ± 210
353.15 K	545.83 ± 220
363.15 K	568.51 ± 230
373.1 K	591.2 ± 240

Settings	Glass transition temperature [°C]
[2]	-78.40 ± 3

CCCCn1cc[n+](C)c1.COS(=O)(=O)[O-] [1-butyl-3-methylimidazolium methyl sulfate]
Settings	Normal melting temperature [°C]	molar heat capacity at constant pressure [J/K/mol]
[1], 283.1 K	–	226.29 ± 91
[1], 293.15 K	–	246.56 ± 99
[1], 303.15 K	–	266.84 ± 110
[1], 313.15 K	–	287.11 ± 120
[1], 323.15 K	–	307.39 ± 120
[1], 333.15 K	–	327.66 ± 130
[1], 343.15 K	–	347.94 ± 140
[1], 353.15 K	–	368.22 ± 150
[1], 363.15 K	–	388.49 ± 160
[1], 373.1 K	–	408.77 ± 160
[2], Crystal	-4.10 ± 1	–

Settings	Glass transition temperature [°C]
[2]	-91.90 ± 3
